In ChEMBL document CHEMBL6078652, “Discovery of Sporachelins by Genome Mining of a Micromonospora Strain” (J Nat Prod, 2024):
Active and inactive are the calls of the source. The rule behind the calls is not given here.

Legend:
LX-2 [1] = assay: Antifibrotic activity against TGFbeta-1 induced human LX-2 cells assessed as inhibition of ACTA2 mRNA expression at 5 uM incubated for 24 hrs by qRT-PCR analysis relative to control; assay type: functional; parameters: scale not given: the % may be the effect or the level left
NIH3T3 [2] = assay: Antifibrotic activity against TGFbeta-1 induced mouse NIH3T3 cells assessed as decrease in COL1A1 mRNA expression at 1 uM incubated for 24 hrs by qRT-PCR analysis relative to control; assay type: functional; parameters: scale not given: the % may be the effect or the level left
Acinetobacter baumannii [3] = assay: Antibacterial activity against Acinetobacter baumannii ATCC 19606 assessed as bacterial growth inhibition incubated for 16 hrs in presence of Muller-Hinton medium by broth microdilution method; assay type: functional, organism-based
[4] = biological target: T1, Polyunsaturated fatty acid 5-lipoxygenase (Homo sapiens) (UniProt P09917); assay: Inhibition of human 5-LO at 2 uM incubated for 15 mins in presence of ATP by measuring fluorescence intensity relative to control
T1 sequence (whole entry): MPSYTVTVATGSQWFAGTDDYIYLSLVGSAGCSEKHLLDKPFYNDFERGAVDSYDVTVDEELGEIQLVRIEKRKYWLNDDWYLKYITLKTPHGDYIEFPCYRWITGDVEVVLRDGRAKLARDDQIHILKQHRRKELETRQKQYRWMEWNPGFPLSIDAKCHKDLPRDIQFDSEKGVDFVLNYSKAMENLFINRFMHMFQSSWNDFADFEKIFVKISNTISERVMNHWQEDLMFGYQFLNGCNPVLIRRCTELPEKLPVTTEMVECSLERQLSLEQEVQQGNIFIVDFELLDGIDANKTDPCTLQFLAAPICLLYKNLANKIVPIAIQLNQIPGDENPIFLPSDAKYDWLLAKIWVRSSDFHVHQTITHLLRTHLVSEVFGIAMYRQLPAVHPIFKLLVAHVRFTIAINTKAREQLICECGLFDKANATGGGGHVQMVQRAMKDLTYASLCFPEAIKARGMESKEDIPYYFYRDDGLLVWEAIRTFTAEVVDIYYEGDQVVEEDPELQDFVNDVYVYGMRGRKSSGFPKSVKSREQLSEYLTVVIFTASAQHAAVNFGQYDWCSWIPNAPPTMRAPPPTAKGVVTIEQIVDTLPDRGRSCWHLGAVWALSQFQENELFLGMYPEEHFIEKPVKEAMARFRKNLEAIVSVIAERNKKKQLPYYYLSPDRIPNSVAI

Escherichia coli [5] = assay: Antibacterial activity against Escherichia coli ATCC 25922 assessed as bacterial growth inhibition incubated for 16 hrs in presence of Muller-Hinton medium by broth microdilution method; assay type: functional, organism-based
LX-2 [6] = assay: Antifibrotic activity against TGFbeta-1 induced human LX-2 cells assessed as inhibition of TGFB1 mRNA expression at 5 uM incubated for 24 hrs by qRT-PCR analysis relative to control; assay type: functional; parameters: scale not given: the % may be the effect or the level left
LX-2 [7] = assay: Antifibrotic activity against TGFbeta-1 induced human LX-2 cells assessed as inhibition of ACTA2 mRNA expression incubated for 24 hrs by qRT-PCR analysis; assay type: functional, cell-based; conditions: dose 1-5 µM
Bacillus subtilis = assay: Antibacterial activity against Bacillus subtilis CPCC 100029 assessed as bacterial growth inhibition incubated for 16 hrs in presence of Muller-Hinton medium by broth microdilution method; assay type: functional, organism-based
LX-2 [8] = assay: Antifibrotic activity against TGFbeta-1 induced human LX-2 cells assessed as inhibition of TGFB1 mRNA expression at 1 uM incubated for 24 hrs by qRT-PCR analysis relative to control; assay type: functional; parameters: scale not given: the % may be the effect or the level left
Enterococcus faecium = assay: Antibacterial activity against Enterococcus faecium 310682 (VRE) assessed as bacterial growth inhibition incubated for 16 hrs in presence of brain heart infusion medium by broth microdilution method; assay type: functional, organism-based
LX-2 [9] = assay: Antifibrotic activity against TGFbeta-1 induced human LX-2 cells assessed as inhibition of ACTA2 mRNA expression at 1 uM incubated for 24 hrs by qRT-PCR analysis relative to control; assay type: functional; parameters: scale not given: the % may be the effect or the level left
LX-2 [10] = assay: Antifibrotic activity against TGFbeta-1 induced human LX-2 cells assessed as inhibition of COL1A1 mRNA expression incubated for 24 hrs by qRT-PCR analysis; assay type: functional, cell-based; conditions: dose 1-5 µM
Pseudomonas aeruginosa [11] = assay: Antibacterial activity against Pseudomonas aeruginosa ATCC 27853 assessed as bacterial growth inhibition incubated for 16 hrs in presence of Muller-Hinton medium by broth microdilution method; assay type: functional, organism-based
LX-2 [12] = assay: Antifibrotic activity against TGFbeta-1 induced human LX-2 cells assessed as inhibition of COL1A1 mRNA expression at 5 uM incubated for 24 hrs by qRT-PCR analysis relative to control; assay type: functional; parameters: scale not given: the % may be the effect or the level left
LX-2 [13] = assay: Cytotoxicity against human LX-2 cells assessed as reduction in cell viability at 200 uM incubated for 24 hrs by CCK-8 assay; assay type: toxicity, cell-based; conditions: lx-2, 24 h
LX-2 [14] = assay: Antifibrotic activity against TGFbeta-1 induced human LX-2 cells assessed as inhibition of TGFB1 mRNA expression incubated for 24 hrs by qRT-PCR analysis; assay type: functional, cell-based; conditions: dose 1-5 µM
Acinetobacter baumannii [15] = assay: Antibacterial activity against Acinetobacter baumannii 2799 assessed as bacterial growth inhibition incubated for 16 hrs in presence of Muller-Hinton medium by broth microdilution method; assay type: functional, organism-based
NIH3T3 [16] = assay: Antifibrotic activity against TGFbeta-1 induced mouse NIH3T3 cells assessed as decrease in Acta2 mRNA expression at 1 uM incubated for 24 hrs by qRT-PCR analysis relative to control; assay type: functional; parameters: scale not given: the % may be the effect or the level left
Enterococcus faecalis = assay: Antibacterial activity against Enterococcus faecalis ATCC 33186 assessed as bacterial growth inhibition incubated for 16 hrs in presence of brain heart infusion medium by broth microdilution method; assay type: functional, organism-based
NIH3T3 [17] = assay: Antifibrotic activity against TGFbeta-1 induced mouse NIH3T3 cells assessed as decrease in COL1A1 mRNA expression at 5 uM incubated for 24 hrs by qRT-PCR analysis relative to control; assay type: functional; parameters: scale not given: the % may be the effect or the level left
NIH3T3 [18] = assay: Antifibrotic activity against TGFbeta-1 induced mouse NIH3T3 cells assessed as decrease in Acta2 mRNA expression at 5 uM incubated for 24 hrs by qRT-PCR analysis relative to control; assay type: functional; parameters: scale not given: the % may be the effect or the level left
Staphylococcus aureus [19] = assay: Antibacterial activity against Staphylococcus aureus ATCC 29213 assessed as bacterial growth inhibition incubated for 16 hrs in presence of Muller-Hinton medium by broth microdilution method; assay type: functional, organism-based
Staphylococcus aureus [20] = assay: Antibacterial activity against Staphylococcus aureus ATCC 33591 assessed as bacterial growth inhibition incubated for 16 hrs in presence of Muller-Hinton medium by broth microdilution method; assay type: functional, organism-based
LX-2 [21] = assay: Antifibrotic activity against TGFbeta-1 induced human LX-2 cells assessed as inhibition of COL1A1 mRNA expression at 1 uM incubated for 24 hrs by qRT-PCR analysis relative to control; assay type: functional; parameters: scale not given: the % may be the effect or the level left
Pseudomonas aeruginosa [22] = assay: Antibacterial activity against Pseudomonas aeruginosa 2774 assessed as bacterial growth inhibition incubated for 16 hrs in presence of Muller-Hinton medium by broth microdilution method; assay type: functional, organism-based
Escherichia coli [23] = assay: Antibacterial activity against Escherichia coli ATCC 35218 assessed as bacterial growth inhibition incubated for 16 hrs in presence of Muller-Hinton medium by broth microdilution method; assay type: functional, organism-based
Klebsiella pneumoniae [24] = assay: Antibacterial activity against Klebsiella pneumoniae ATCC 10031 assessed as bacterial growth inhibition incubated for 16 hrs in presence of Muller-Hinton medium by broth microdilution method; assay type: functional, organism-based
Klebsiella pneumoniae [25] = assay: Antibacterial activity against Klebsiella pneumoniae ATCC 700603 assessed as bacterial growth inhibition incubated for 16 hrs in presence of Muller-Hinton medium by broth microdilution method; assay type: functional, organism-based

Structure (SMILES)	Activity (LX-2 [1]) [%]	Activity (NIH3T3 [2]) [%]	Activity (Acinetobacter baumannii [3])	inhibition [4] [%]	Activity (Escherichia coli [5])	Activity (LX-2 [6]) [%]	Activity (Bacillus subtilis)	Activity (LX-2 [8]) [%]	Activity (Enterococcus faecium)	Activity (LX-2 [9]) [%]	Activity (Pseudomonas aeruginosa [11])	Activity (LX-2 [12]) [%]	Activity (LX-2 [13])	Activity (Acinetobacter baumannii [15])	Activity (NIH3T3 [16]) [%]	Activity (Enterococcus faecalis)	Activity (NIH3T3 [17]) [%]	Activity (NIH3T3 [18]) [%]	Activity (Staphylococcus aureus [19])	Activity (Staphylococcus aureus [20])	also measured
O=C(NCCCC[C@@H](CO)NC(=O)c1cccc(O)c1O)c1cccc(O)c1O	136	9	inactive	67	inactive	74	inactive	60	inactive	87	inactive	82	Non-toxic	inactive	70	inactive	78	108	inactive	inactive	Activity (LX-2 [7]): Dose-dependent-effect; Activity (LX-2 [10]): Dose-dependent-effect; Activity (LX-2 [14]): Dose-dependent-effect; Activity (LX-2 [21]): 39%; Activity (Pseudomonas aeruginosa [22]): inactive; Activity (Escherichia coli [23]): inactive; Activity (Klebsiella pneumoniae [24]): inactive; Activity (Klebsiella pneumoniae [25]): inactive
O=C(Cc1ccc(O)cc1)OC[C@H](CCCCNC(=O)c1cccc(O)c1O)NC(=O)c1cccc(O)c1O	136	46	inactive	77	inactive	81	inactive	50	inactive	61	inactive	81	Non-toxic	inactive	80	inactive	68	119	inactive	inactive	Activity (LX-2 [7]): Dose-dependent-effect; Activity (LX-2 [10]): Dose-dependent-effect; Activity (LX-2 [14]): Dose-dependent-effect; Activity (LX-2 [21]): 29%; Activity (Pseudomonas aeruginosa [22]): inactive; Activity (Escherichia coli [23]): inactive; Activity (Klebsiella pneumoniae [24]): inactive; Activity (Klebsiella pneumoniae [25]): inactive
CCC(=O)OC[C@H](CCCCNC(=O)c1cccc(O)c1O)NC(=O)c1cccc(O)c1O	139	35	inactive	75	inactive	73	inactive	57	inactive	105	inactive	92	Non-toxic	inactive	61	inactive	81	117	inactive	inactive	Activity (LX-2 [7]): Dose-dependent-effect; Activity (LX-2 [10]): Dose-dependent-effect; Activity (LX-2 [14]): Dose-dependent-effect; Activity (LX-2 [21]): 50%; Activity (Pseudomonas aeruginosa [22]): inactive; Activity (Escherichia coli [23]): inactive; Activity (Klebsiella pneumoniae [24]): inactive; Activity (Klebsiella pneumoniae [25]): inactive
CC(=O)OC[C@H](CCCCNC(=O)c1cccc(O)c1O)NC(=O)c1cccc(O)c1O	132	60	inactive	78	inactive	70	inactive	36	inactive	62	inactive	81	Non-toxic	inactive	95	inactive	70	129	inactive	inactive	Activity (LX-2 [7]): Dose-dependent-effect; Activity (LX-2 [10]): Dose-dependent-effect; Activity (LX-2 [14]): Dose-dependent-effect; Activity (LX-2 [21]): 35%; Activity (Pseudomonas aeruginosa [22]): inactive; Activity (Escherichia coli [23]): inactive; Activity (Klebsiella pneumoniae [24]): inactive; Activity (Klebsiella pneumoniae [25]): inactive
CC(C)C(=O)OC[C@H](CCCCNC(=O)c1cccc(O)c1O)NC(=O)c1cccc(O)c1O	138	44	inactive	80	inactive	72	inactive	65	inactive	92	inactive	93	Non-toxic	inactive	75	inactive	79	122	inactive	inactive	Activity (LX-2 [7]): Dose-dependent-effect; Activity (LX-2 [10]): Dose-dependent-effect; Activity (LX-2 [14]): Dose-dependent-effect; Activity (LX-2 [21]): 49%; Activity (Pseudomonas aeruginosa [22]): inactive; Activity (Escherichia coli [23]): inactive; Activity (Klebsiella pneumoniae [24]): inactive; Activity (Klebsiella pneumoniae [25]): inactive
O=C(Cc1ccccc1)OC[C@H](CCCCNC(=O)c1cccc(O)c1O)NC(=O)c1cccnc1	68	7.6	inactive	66	inactive	40	inactive	15	inactive	3.1	inactive	29	Non-toxic	inactive	20	inactive	31	55	inactive	inactive	Activity (LX-2 [21]): -3.5%; Activity (Pseudomonas aeruginosa [22]): inactive; Activity (Escherichia coli [23]): inactive; Activity (Klebsiella pneumoniae [24]): inactive; Activity (Klebsiella pneumoniae [25]): inactive
